Measurements: patent publication US20050234113A1, “Antioxidant and radical scavenging activity of synthetic analogs of desferrithiocin” (University of Florida Research Foundation, Inc., priority 2002, published 2005)
Marks after values point to notes of the source that are not given here.

Key:
[1] = system: Myeloperoxidase (MPO) activity in colonic tissue; test: Myeloperoxidase (MPO) assay in colonic tissue of rats with acetic acid-induced colitis; format: in vivo; conditions: 650 μmol kg^−1 intracolonically 30 min before 4% acetic acid, mean ± standard deviation
Method: The ligands were administered to the rats intracolonically as a suspension or solution in distilled water (2 mL) at a dose of 650 μmol kg^−1. The drug solutions were made fresh for each experiment. ROWASA®, the pharmaceutical preparation which contains 5-ASA (2 mL, 66.7 mg mL^−1) was given at a dose of 2318 μmol kg^−1. Control rats received distilled water (2 mL), administered intracolonically.
Animal care and experimental procedures were approved by the Institutional Animal Care and Use Committee. Colitis was induced by a modification of published methods. Briefly, the rats were anesthetized with sodium pentobarbital, 55 mg kg^−1 intraperitoneally. The abdomen was shaved and prepared for surgery. A midline incision was made, and the cecum and proximal colon were exteriorized. A reversible suture was placed at the junction of the cecum and proximal colon. The colon was rinsed with saline (10 mL), and the fluid and intestinal contents were gently expressed out the rectum. A gum-based rectal plug was inserted. The compound of interest, or distilled water in the control animals (2 mL), was injected intracolonically just distal to the ligature. The cecum and proximal colon were returned to the abdominal cavity; the compound was allowed to remain in the gut for 30 min. Then, the cecum and proximal colon were reexteriorized. The rectal plug was removed, and the drug was gently expressed out of the colon. Acetic acid (4%, 2 mL) was injected into the proximal colon over a 15-20-second time period. The acid was allowed to remain in the gut until one minute had passed (i.e., 40-45 seconds after the end of the acid administration). The no acid control rats received distilled water (2 mL), which was administered in the same manner as was the acetic acid. Air (10 mL) was then injected into the proximal colon to expel the acid or water. The cecal/proximal colon ligature was removed, the gut was returned to the abdominal cavity, and the incisions were closed. The animals were allowed to recover overnight and were sacrificed 24 hr later. The entire length of the colon was removed and assessed for damage both densitometrically and biochemically.
The activity of MPO was measured in colonic tissue by a modification of the method of Krawisz et al. in Gastroenterology 87, 1344-1350 (1984). Each excised colon was homogenized in 9 volumes of homogenization buffer (0.5% hexadecyltrimethylammonium bromide (HDTMA) in 50 mM sodium acetate, pH 6.0); this homogenate was centrifuged at 1200 g for 20 min at 4° C. A sample of the supernatant (1.8 mL) was transferred into a microcentrifuge tube and stored frozen at −20° C. for up to one week. Prior to assay, the thawed aliquot was centrifuged at about 10,000 g for 15 minutes at 4° C. The final supernatant (33 μL) was added to a solution of o-dianisidine HCl (0.17 mg mL^−1 in 50 mM sodium acetate, pH 6.0, made fresh daily and filtered immediately before use) (950 μL), the mixture was vortexed, and the peroxidase reaction was initiated by the addition of H2O2 to 50 mM sodium acetate, pH 6.0, made fresh daily (16.7 μL). The A470 at room temperature (ca. 23° C.) was read at 15-second intervals for 2 min. The rates were assessed graphically and are presented as change in milliabsorbance units (ΔmAU)/min per g tissue. Under these conditions, 0.1 “Unit” of purified human leukocyte myeloperoxidase (Sigma M-6908) produced a ΔA470 of about 400 mAU/min.
The biochemical measurement involves measuring the level of MPO in a sample of homogenate of the whole rat colon. When the colon is damaged by the acetic acid, there is an extravasation of neutrophils. The extent of this infiltration can serve as a quantitative marker for tissue damage. Although other leukocytes, such as eosinophils and monocytes, also contribute to the inflammatory response, their contribution is small; the majority of the cells recruited during the acute inflammatory response are neutrophils. […]

[2] = Quenching of the ABTS radical cation
[3] = Table 1, A734, six-minute reaction, pH 7.4, 1.25 to 15 μM
[4] = Table 3, A734, 6-min reaction, values marked b are the inventors' unpublished results

CC(=O)N(O)CCCCCNC(=O)CCC(=O)N(O)CCCCCNC(=O)CCC(=O)N(O)CCCCCN [DFO, Desferrioxamine B, reference compound]
MPO activity [1]: 20049 ± 17314 mAU min^−1g of colonic tissue^−1 | Slope × 10^3 OD units/μM (ABTS radical cation quenching) [2, 3]: −136.8 × 10^3 OD units/μM | Slope × 10^3 OD units/μM (ABTS radical cation quenching) [2, 4]: −137^b × 10^3 OD units/μM

O=C(O)[C@H]1CSC(c2ccc(O)cc2O)=N1 [4′-(HO)-DADMDFT, 4′-hydroxydesazadesmethyldesferrithiocin]
MPO activity [1]: 56466 ± 52617 mAU min^−1g of colonic tissue^−1 | Slope × 10^3 OD units/μM (ABTS radical cation quenching) [2, 3]: −101.6 × 10^3 OD units/μM | Slope × 10^3 OD units/μM (ABTS radical cation quenching) [2, 4]: −102^b × 10^3 OD units/μM
